Values quoted from earlier work in patent US7375097B2, “Increasing ATP availability by inhibition of creatine kinase (CK) leakage resulting from high-intensity exercise” (Aplodan Formulations Ltd., priority 2006, dated 2008).
Where two headings read alike, the source gives them in different places.

Tests used:
[1] = in vitro
[2] = in vivo
[3] = system: skeletal muscle performance; details: clinical trials
[4] = system: patients with inadequate coronary blood flow
[5] = system: leakage of CK in acute myocardial infarction; details: human patients suffering from acute myocardial infarction
[6] = system: serum CK levels increased by isoprenaline; details: rats; CK increased by administration of isoprenaline
[7] = in vivo; remark: listed apart in the source
[8] = system: models of myocardial infarction
[9] = oral administration, test animals, up to about, at 48 hours
[10] = alkaline and acidic solutions
hand-grip strength = details: unaffected in the placebo group

dephosphorylation to creatine ([1]; blood and muscle): less so | absorption by the intestine [9]: about 60%
SMILES: CN(CCOP(=O)(O)O)C(=N)N [2-(carbamimidoyl-methyl-amino)ethoxyphosphonic acid]
dephosphorylation to creatine ([1]; kidney, intestine and liver): dephosphorylated to creatine to some degree | cardioprotection [2]: afford cardioprotection | capacity to perform physical activity [3]: increase the capacity to perform physical activity | muscular development [3]: improve muscular development | cardiac parameters [4]: improve cardiac parameters | leakage of CK and several other enzymes [5]: reduce the leakage of CK as well as several other enzymes | serum CK levels [6]: reduce serum CK levels | tolerability / side effects [7]: well tolerated and without side effects | protection against cellular necrosis [8]: protective against cellular necrosis | stability in solution [10]: stable in both alkaline and acidic solutions | hand-grip strength (hand-grip strength): hand-grip strength was improved | muscular performance (elderly subjects): improved muscular performance
